Results published in US11208412B2 (DAEGU-GYEONGBUK MEDICAL INNOVATION FOUNDATION, priority 2017, dated 2021).

Experiments:
Assay in all cases: Kinase selectivity, DiscoverX scanMAX Kinase assay panel (% control)
Type in all cases: binding
[1] = biological target: T1, kinases of the scanMAX Kinase assay panel (Homo sapiens, UniProt P42336, Q546K); settings: PIK3CA(Q546K); 1 uM
T1 construct: purchased DiscoverX Co. (contract measurement) scanMAX Kinase assay panel
In short: (§1)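 Each enzyme is treated with drug at 1 uM in DMSO, then signal is scaled between a positive control (0%) and DMSO (100%) to give % control. Kinases with % control under 35% are scored as inhibited.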

[2] = biological target: T2, kinases of the scanMAX Kinase assay panel (Homo sapiens, UniProt P28482); settings: ERK2; 1 uM
T2 construct: purchased DiscoverX Co. (contract measurement) scanMAX Kinase assay panel
T2 sequence (P28482 whole entry): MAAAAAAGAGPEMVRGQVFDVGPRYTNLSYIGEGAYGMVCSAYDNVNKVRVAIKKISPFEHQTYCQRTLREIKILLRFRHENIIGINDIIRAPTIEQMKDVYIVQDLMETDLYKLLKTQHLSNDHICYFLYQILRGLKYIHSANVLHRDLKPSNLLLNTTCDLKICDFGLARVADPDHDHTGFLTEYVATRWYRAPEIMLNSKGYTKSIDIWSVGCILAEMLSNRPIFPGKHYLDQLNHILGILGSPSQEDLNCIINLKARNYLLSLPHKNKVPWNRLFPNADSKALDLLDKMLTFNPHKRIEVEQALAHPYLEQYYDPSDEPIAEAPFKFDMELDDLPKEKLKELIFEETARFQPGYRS
In short: as §1

[3] = biological target: T3, kinases of the scanMAX Kinase assay panel (Homo sapiens, UniProt P12931); settings: kinase SRC; 1 uM in DMSO
T3 construct: purchased DiscoverX Co. (contract measurement) scanMAX Kinase assay panel
T3 sequence (P12931 whole entry): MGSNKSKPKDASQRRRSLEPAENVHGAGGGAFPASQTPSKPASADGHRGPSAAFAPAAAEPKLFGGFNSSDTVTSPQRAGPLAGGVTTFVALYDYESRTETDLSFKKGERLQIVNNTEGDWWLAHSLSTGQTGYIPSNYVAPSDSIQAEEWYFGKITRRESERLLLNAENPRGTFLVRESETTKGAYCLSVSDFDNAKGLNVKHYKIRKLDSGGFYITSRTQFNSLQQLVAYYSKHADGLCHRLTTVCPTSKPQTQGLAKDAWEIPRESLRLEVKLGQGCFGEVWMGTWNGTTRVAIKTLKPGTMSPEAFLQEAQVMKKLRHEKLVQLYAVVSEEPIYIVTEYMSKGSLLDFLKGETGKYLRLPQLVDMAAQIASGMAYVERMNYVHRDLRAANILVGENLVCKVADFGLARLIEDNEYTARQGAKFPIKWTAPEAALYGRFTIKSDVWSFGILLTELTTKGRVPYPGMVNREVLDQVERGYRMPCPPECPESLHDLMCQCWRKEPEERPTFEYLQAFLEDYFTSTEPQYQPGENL
In short: as §1

[4] = biological target: T4, kinases of the scanMAX Kinase assay panel (Homo sapiens, UniProt Q6PHR2); settings: kinase ULK3; 1 uM in DMSO
T4 construct: purchased DiscoverX Co. (contract measurement) scanMAX Kinase assay panel
T4 sequence (Q6PHR2 1-472): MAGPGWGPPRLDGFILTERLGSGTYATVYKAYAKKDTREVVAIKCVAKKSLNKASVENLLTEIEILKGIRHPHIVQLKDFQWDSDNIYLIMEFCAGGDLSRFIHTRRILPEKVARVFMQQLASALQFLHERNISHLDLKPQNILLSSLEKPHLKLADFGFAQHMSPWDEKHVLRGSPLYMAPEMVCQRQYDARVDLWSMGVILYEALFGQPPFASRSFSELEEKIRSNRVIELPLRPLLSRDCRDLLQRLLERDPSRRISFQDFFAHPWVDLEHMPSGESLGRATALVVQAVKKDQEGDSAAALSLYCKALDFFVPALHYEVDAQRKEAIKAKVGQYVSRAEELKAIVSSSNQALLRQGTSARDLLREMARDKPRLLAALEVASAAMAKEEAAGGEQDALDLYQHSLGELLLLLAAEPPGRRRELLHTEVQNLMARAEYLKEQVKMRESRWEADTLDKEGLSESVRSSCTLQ
In short: as §1

[5] = biological target: T5, kinases of the scanMAX Kinase assay panel (Homo sapiens, UniProt P21127); settings: CDC2L1; 1 uM
T5 construct: purchased DiscoverX Co. (contract measurement) scanMAX Kinase assay panel
In short: as §1

[6] = biological target: T6, kinases of the scanMAX Kinase assay panel (Homo sapiens, UniProt Q9UF33); settings: EPHA6; 1 uM
T6 construct: purchased DiscoverX Co. (contract measurement) scanMAX Kinase assay panel
T6 sequence (Q9UF33 23-1036): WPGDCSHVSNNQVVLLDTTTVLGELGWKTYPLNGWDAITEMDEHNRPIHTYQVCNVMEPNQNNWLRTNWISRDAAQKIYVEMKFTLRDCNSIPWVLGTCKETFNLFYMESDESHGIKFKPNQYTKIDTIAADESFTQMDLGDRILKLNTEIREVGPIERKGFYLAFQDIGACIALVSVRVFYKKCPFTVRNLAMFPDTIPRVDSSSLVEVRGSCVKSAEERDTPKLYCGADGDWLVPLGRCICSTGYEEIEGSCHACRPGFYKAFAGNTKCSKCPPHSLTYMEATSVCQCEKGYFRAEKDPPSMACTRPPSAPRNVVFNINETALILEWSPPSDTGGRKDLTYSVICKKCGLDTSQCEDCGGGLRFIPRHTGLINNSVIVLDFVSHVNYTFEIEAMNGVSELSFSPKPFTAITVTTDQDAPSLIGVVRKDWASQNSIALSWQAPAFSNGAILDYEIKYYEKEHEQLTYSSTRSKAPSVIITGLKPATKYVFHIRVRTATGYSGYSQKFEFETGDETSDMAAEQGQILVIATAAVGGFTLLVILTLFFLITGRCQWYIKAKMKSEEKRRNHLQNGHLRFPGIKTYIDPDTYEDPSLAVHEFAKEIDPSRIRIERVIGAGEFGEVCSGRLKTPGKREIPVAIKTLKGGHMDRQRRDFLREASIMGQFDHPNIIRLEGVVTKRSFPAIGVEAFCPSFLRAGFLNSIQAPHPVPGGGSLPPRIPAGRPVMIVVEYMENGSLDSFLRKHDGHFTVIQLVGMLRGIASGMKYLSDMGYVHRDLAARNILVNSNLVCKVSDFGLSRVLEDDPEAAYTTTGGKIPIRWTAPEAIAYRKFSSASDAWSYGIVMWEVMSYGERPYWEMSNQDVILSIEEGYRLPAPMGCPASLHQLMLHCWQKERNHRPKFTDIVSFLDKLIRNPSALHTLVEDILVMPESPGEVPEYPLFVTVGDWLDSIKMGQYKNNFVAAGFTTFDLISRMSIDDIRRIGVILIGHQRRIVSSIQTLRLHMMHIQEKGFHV
In short: as §1

[7] = biological target: T7, kinases of the scanMAX Kinase assay panel (Homo sapiens, UniProt Q9UBF8); settings: PIK4CB; 1 uM
T7 construct: purchased DiscoverX Co. (contract measurement) scanMAX Kinase assay panel
T7 sequence (Q9UBF8 whole entry): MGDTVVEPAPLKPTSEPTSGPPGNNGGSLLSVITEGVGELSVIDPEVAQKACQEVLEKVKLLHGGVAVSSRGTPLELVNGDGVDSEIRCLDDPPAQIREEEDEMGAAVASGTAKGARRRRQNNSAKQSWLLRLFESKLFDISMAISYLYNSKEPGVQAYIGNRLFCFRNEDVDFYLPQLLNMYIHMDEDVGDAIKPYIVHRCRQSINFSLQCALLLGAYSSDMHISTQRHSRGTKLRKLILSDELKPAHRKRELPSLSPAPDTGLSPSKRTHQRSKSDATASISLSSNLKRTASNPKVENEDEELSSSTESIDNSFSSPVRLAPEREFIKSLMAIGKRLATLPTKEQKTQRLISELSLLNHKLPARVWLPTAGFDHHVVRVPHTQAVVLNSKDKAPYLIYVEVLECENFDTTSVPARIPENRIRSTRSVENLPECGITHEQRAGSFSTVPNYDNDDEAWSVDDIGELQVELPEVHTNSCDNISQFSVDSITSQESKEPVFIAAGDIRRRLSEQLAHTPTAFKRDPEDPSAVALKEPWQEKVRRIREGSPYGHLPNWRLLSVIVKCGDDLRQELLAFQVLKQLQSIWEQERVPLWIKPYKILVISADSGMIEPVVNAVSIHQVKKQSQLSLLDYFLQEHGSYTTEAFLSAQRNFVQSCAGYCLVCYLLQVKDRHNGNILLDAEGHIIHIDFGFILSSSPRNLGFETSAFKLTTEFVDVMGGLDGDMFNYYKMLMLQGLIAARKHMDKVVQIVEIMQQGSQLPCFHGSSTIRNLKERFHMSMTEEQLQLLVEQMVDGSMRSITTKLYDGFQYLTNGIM
In short: as §1

[8] = biological target: T8, kinases of the scanMAX Kinase assay panel (Homo sapiens, UniProt Q8NEV4); settings: MYO3A; 1 uM
T8 construct: purchased DiscoverX Co. (contract measurement) scanMAX Kinase assay panel
T8 sequence (Q8NEV4 whole entry): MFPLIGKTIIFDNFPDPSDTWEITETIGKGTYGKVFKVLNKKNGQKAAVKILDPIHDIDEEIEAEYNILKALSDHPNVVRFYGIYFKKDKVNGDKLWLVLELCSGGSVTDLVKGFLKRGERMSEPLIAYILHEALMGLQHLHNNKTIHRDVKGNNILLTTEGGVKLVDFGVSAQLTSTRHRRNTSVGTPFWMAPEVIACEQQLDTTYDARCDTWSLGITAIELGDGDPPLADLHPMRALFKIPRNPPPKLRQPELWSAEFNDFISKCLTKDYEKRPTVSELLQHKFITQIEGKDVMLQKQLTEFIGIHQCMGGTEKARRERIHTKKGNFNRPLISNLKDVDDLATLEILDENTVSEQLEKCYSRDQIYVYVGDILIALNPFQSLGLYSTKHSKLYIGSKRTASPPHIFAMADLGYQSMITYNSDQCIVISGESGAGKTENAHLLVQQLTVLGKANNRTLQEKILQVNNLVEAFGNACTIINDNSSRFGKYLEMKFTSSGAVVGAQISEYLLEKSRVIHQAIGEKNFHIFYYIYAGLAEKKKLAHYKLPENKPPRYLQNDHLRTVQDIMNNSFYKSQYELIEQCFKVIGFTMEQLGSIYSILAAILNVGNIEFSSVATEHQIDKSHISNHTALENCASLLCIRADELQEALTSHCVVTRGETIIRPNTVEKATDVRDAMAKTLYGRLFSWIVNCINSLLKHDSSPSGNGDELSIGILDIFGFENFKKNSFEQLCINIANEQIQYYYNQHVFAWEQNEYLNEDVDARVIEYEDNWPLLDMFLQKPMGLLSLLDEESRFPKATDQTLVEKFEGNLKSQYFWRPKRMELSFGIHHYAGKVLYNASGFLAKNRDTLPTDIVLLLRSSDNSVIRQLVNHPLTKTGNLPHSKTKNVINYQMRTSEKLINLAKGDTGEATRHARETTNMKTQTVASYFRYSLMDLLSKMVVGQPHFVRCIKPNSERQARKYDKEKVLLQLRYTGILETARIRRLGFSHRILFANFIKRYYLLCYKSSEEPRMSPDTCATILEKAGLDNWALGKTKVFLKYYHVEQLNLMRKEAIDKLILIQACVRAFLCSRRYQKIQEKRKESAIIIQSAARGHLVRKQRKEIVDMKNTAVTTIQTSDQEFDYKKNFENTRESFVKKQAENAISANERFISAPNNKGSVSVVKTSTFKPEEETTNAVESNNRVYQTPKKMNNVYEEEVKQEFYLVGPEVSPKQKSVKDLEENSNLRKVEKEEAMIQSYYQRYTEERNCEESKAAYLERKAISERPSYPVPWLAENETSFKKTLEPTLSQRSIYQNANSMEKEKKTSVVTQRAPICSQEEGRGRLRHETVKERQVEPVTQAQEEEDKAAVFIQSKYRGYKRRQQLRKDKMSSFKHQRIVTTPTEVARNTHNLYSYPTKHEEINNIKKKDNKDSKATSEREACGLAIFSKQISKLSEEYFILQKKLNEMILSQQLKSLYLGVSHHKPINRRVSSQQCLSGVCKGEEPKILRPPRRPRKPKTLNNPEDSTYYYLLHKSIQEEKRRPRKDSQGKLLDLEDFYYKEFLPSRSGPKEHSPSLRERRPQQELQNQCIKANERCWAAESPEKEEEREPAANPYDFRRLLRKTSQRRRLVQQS
In short: as §1

T1 sequence (P42336 whole entry Q546K): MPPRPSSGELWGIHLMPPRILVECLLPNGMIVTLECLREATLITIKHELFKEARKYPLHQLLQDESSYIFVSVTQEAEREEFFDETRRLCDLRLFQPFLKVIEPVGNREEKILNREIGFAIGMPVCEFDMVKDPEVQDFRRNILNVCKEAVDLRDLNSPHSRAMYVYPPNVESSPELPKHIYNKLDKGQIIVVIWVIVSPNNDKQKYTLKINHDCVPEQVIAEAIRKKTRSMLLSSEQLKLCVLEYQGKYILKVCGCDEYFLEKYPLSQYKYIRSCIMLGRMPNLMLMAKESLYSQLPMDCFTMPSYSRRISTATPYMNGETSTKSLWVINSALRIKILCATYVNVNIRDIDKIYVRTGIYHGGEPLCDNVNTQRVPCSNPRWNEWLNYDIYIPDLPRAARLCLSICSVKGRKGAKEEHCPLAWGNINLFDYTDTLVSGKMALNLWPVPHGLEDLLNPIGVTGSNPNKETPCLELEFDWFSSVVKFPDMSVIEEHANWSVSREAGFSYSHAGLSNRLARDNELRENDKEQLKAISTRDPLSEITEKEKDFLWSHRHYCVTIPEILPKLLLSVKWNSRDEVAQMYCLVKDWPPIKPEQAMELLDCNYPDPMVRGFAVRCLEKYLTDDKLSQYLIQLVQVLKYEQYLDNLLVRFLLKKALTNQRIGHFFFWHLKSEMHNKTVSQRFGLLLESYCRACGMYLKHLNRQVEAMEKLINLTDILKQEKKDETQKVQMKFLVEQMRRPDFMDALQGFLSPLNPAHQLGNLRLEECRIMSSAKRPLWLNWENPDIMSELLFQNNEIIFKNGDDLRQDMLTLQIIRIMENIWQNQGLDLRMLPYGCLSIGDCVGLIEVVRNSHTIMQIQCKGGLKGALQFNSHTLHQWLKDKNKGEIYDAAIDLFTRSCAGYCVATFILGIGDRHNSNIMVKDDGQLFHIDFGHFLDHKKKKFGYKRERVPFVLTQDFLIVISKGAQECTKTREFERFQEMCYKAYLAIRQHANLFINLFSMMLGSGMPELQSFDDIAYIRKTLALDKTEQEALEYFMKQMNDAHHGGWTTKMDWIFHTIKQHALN

Row | Compound | remaining binding at 1 µM [1] [%] | remaining binding at 1 µM [2] [%] | remaining binding at 1 µM [3] [%] | remaining binding at 1 µM [4] [%] | remaining binding at 1 µM [5] [%] | remaining binding at 1 µM [6] [%] | remaining binding at 1 µM [7] [%] | remaining binding at 1 µM [8] [%]
1 | CCNc1nc(Nc2ccc(C(=O)N3CCC(N4CCOCC4)CC3)cc2OC)nc2[nH]cc(C(F)(F)F)c12 [Example 104, (4-((4-(ethylamino)-5-(trifluoromethyl)-7H-pyrrolo[2,3-d]pyrimidine-2-yl)amino)-3-methoxyphenyl)(4-morpholinopiperidine-1-yl)methanone] | 87 | 100 | 100 | 100 | 99 | 100 | 99 | 78
2 | CNc1nc(Nc2ccc(C(=O)N3CCOCC3)cc2OC)nc2[nH]cc(C#N)c12 [Example 1, 2-((2-methoxy-4-(morpholine-4-carbonyl)phenyl)amino)-4-(methylamino)-7H-pyrrolo[2,3-d]pyrimidine-5-carbonitrile] | 75 | 86 | 90 | 62 | 100 | 93 | 61 | 68
3 | CC1(Nc2nc(Nc3cnn([C@H]4CCN(C5COC5)C[C@@H]4F)c3Cl)nc3[nH]cc(C#N)c23)CC1 [Example 52, 2-((5-chloro-1-((3S,4S)-3-fluoro-1-(oxetane-3-yl)piperidine-4-yl)-1H-pyrazole-4-yl)amino)((1-methylcyclopropyl)amino)-7H-pyrrolo[2,3-d]pyrimidine-5-carbonitrile] | 85 | 54 | 4.6 | 0.2 | 84 | 43 | 60 | 3.9
